The values below come from the OPERA property sets (Mansouri et al. 2018).

The term logP denotes the decadic logarithm of the partition coefficient of the neutral form, usually between octanol and water. The molecule `O=c1nc(N=CN2CCOCC2)ccn1C1CC(F)C(CO)O1` (stereo not given) showed a logP of -0.68.

In the case of `CCCN(C=Nc1ccn(C2CC(F)C(CO)O2)c(=O)n1)CCC` (stereo not given), the logP stood at 1.35. In the case of `CCN(C=Nc1ccn(C2CC(F)C(CO)O2)c(=O)n1)CC` (stereo not given) it was 0.23; in that of `O=c1nc(/N=C/N2CCCCC2)ccn1[C@H]1C[C@H](F)[C@@H](CO)O1`, 0.36. In the case of `CN(C)C=Nc1ccn(C2CCC(CO)O2)c(=O)n1` (stereo not given) it was -0.95.

On to `Nc1ccn([C@H]2C[C@H](F)[C@@H](CO)O2)c(=O)n1`, for which the log partition coefficient (logP) was -0.89. Consider `CCCN(/C=N/c1ccn([C@H]2CC[C@@H](CO)O2)c(=O)n1)CCC`, for which the lipophilicity (logP) is 0.95. Consider `O=c1nc(N=CN2CCOCC2)ccn1C1CCC(CO)O1` (stereo not given), for which the logP is -0.97. For the molecule `CC(C)N(C=Nc1ccn(C2CC(F)C(CO)O2)c(=O)n1)C(C)C` (stereo not given), the log partition coefficient (logP) worked out at 1.14.

Turning to `CN(C)C=Nc1ccn(C2CC(F)C(CO)O2)c(=O)n1` (stereo not given), the logP was -0.64. Take `CCN(/C=N/c1ccn([C@H]2CC[C@@H](CO)O2)c(=O)n1)CC`: the logP is -0.06. With `CC(C)N(C=Nc1ccn(C2CCC(CO)O2)c(=O)n1)C(C)C` (stereo not given), the logP came to 0.72.

In the case of `O=c1nc(N=CN2CCCC2)ccn1C1CCC(CO)O1` (stereo not given), the logP was -0.47. In the case of `O=c1nc(N=CN2CCCC2)ccn1C1CC(F)C(CO)O1` (stereo not given) it was -0.16. Turning to `O=c1nc(/N=C/N2CCCCC2)ccn1[C@H]1CC[C@@H](CO)O1`, the logP was 0.06.
